Measurements published in article PMC8129498, “Synthesis, Antitumor and Antiviral In Vitro Activities of New Benzotriazole-Dicarboxamide Derivatives” (Frontiers in Chemistry, 2021).
Where two headings read alike, the source gives them in different places.

Key:
[1] = Cytotoxicity in Vero-76 cell-line (MTT); type: cell-based; details: monkey (Cercopithecus aethiops), Vero-76 cells (mock-infected), mock-infected Vero-76 cells
Description: Vero-76 cells were seeded in 96-well plates at an initial density of 5 × 10^5 cells/ml, in Dulbecco’s Modified Eagle Medium (D-MEM) with L-glutamine and 25 mg/L kanamycin, supplemented with 10% FBS. Cell cultures were then incubated at 37°C in a humidified and 5% CO2 atmosphere, in the absence or presence of serial dilutions of test compounds. The test medium used for the cytotoxic assay as well as for antiviral assay contained 1% of the appropriate serum. Cell viability was determined after 48–96 h at 37°C by MTT method for Vero-76 ([Pauwels et al., 1988]).
(§1) The extent of cell growth/viability and viral multiplication, at each drug concentration tested, were expressed as percentage of untreated controls. Concentrations resulting in 50% inhibition (CC50 or EC50) were determined by linear regression analysis.

[2] = system: Coxsackievirus B5 (CV-B5); assay: Plaque reduction assay, CV-B5 in Vero-76 monolayers; type: cell-based; details: Enterovirus B
Poliovirus type-1 (Sb-1) = assay: microbe, parasite or virus in culture; type: cell-based; details: Enterovirus C, Vero 76, read-out: EC50, plaque reduction Sb-1
CCRF-CEM = assay: Antiproliferative assay (MTT), CCRF-CEM; type: cell-based, human; details: for CC50: Homo sapiens, CCRF-CEM, 96 h, read-out: CC50 CCRF-CEM
Description: (§2) Cell lines were purchased from American Type Culture Collection (ATCC). The absence of mycoplasma contamination was checked periodically by the Hoechst staining method. Exponentially growing leukemia and lymphoma cells were seeded at 1 × 10^5 cells/ml in 96 well plates in RPMI-1640 medium, supplemented with 10% fetal bovine serum, 100 units/ml penicillin G, and 100 μg/ml streptomycin, and incubated at 37°C in a humidified, 5% CO2 atmosphere in the absence or presence of serial dilutions of test compounds. Cell viability was determined after 96 h at 37°C by the 3-(4,5-dimethylthiazol-2-yl)-2,5-diphenyl-tetrazolium bromide (MTT) method. Activity against solid-tumor derived cells was evaluated in exponentially growing cultures seeded at 5 × 10^4 cells/ml and allowed to adhere for 16 h to culture plates before the addition of the drugs. Cell viability was determined by the MTT method 4 days later. Vincristine and doxorubicin were used as reference drugs.
as §1

WIL-2NS = assay: Antiproliferative assay (MTT), WIL-2NS; type: cell-based; details: Homo sapiens, WIL2-NS, 96 h, read-out: CC50 WIL-2NS
Description: as §2, §1

CCRF-SB = assay: Antiproliferative assay (MTT), CCRF-SB; type: cell-based; details: Homo sapiens, 96 h, read-out: CC50 CCRF-SB
Description: as §2, §1

SK-MEL28 = assay: Antiproliferative assay (MTT), SK-MEL28; type: cell-based; details: Homo sapiens, SK-MEL-28, 96 h, read-out: CC50 SK-MEL28
Description: as §2, §1

SK-MES1 = assay: Antiproliferative assay (MTT), SK-MES1; type: cell-based; details: Homo sapiens, SK-MES-1, 96 h, read-out: CC50 SK-MES1
Description: as §2, §1

DU145 = assay: Antiproliferative assay (MTT), DU145; type: cell-based; details: Homo sapiens, DU-145, 96 h, read-out: CC50 DU145
Description: as §2, §1

HeLa = assay: Antiproliferative assay (MTT), HeLa; type: cell-based; details: Homo sapiens, 96 h, read-out: CC50 HeLa
Description: as §2, §1

[3] = Antiproliferative assay (MTT), CRL 7065 control fibroblasts; type: cell-based, human
Description: as §2, §1

[4] = MTT, human foreskin fibroblasts, non-tumor control, read-out: CC50 CRL 7065

O=C(O)CCC(=O)Nc1ccc(-n2nnc3cc(Cl)c(Cl)cc32)cc1 [Compound 4a, 4-((4-(5,6-Dichloro-1H-Benzo[d][1,2,3]Triazol-1-yl)phenyl)amino)-4-oxobutanoic Acid]
CC50 [1]: 90 µM | EC50 [2]: 13 µM | EC50 (Poliovirus type-1 (Sb-1)): > 90 µM | melting point: 163 to 164 °C

O=C(CCC(=O)Nc1ccc(Cn2nnc3cc(Cl)c(Cl)cc32)cc1)Nc1ccc(Cn2nnc3cc(Cl)c(Cl)cc32)cc1 [Compound 9a, N ^1,N ^4-Bis(4-((5,6-Dichloro-1H-Benzo[d][1,2,3]Triazol-1-yl)methyl)phenyl)Succinamide]
CC50 [1]: > 100 µM | EC50 [2]: 23 µM | EC50 (Poliovirus type-1 (Sb-1)): 43 µM | melting point: > 300 °C

O=C(O)CCCCC(=O)Nc1ccc(-n2nnc3cc(Cl)c(Cl)cc32)cc1 [Compound 4c, 6-((4-(5,6-Dichloro-1H-Benzo[d][1,2,3]Triazol-1-yl)phenyl)amino)-6-oxohexanoic Acid]
CC50 [1]: 37 µM | EC50 [2]: 9 µM | EC50 (Poliovirus type-1 (Sb-1)): > 37 µM | melting point: 148 to 150 °C

O=C(CCCC(=O)Nc1ccc(Cn2nnc3cc(Cl)c(Cl)cc32)cc1)Nc1ccc(Cn2nnc3cc(Cl)c(Cl)cc32)cc1 [Compound 9b, N ^1,N ^5-Bis(4-((5,6-Dichloro-1H-Benzo[d][1,2,3]Triazol-1-yl)methyl)phenyl)Glutaramide]
CC50 [1]: 75 µM | EC50 [2]: 52 µM | EC50 (Poliovirus type-1 (Sb-1)): > 75 µM | CC50 (CCRF-CEM): 5500 ± 1800 nM | CC50 (WIL-2NS): 23 ± 7 µM | CC50 (CCRF-SB): 8500 ± 3200 nM | CC50 (SK-MEL28): 2600 ± 700 nM | CC50 (SK-MES1): 9.9 ± 3.1 µM | CC50 (DU145): 5200 ± 400 nM | CC50 (HeLa): 5.4 ± 0.7 µM | CC50 at 96 h [3, 4]: 6700 ± 2400 nM | melting point: 204 to 206 °C

O=C(/C=C/C(=O)Nc1ccc(-n2nnc3cc(Cl)c(Cl)cc32)cc1)Nc1ccc(-n2nnc3cc(Cl)c(Cl)cc32)cc1 [Compound 3d, N ^1 ,N ^4-Bis(4-(5,6-Dichloro-1H-Benzo[d][1,2,3]Triazol-1-yl)phenyl)fumaramide]
CC50 (CCRF-CEM): 70 ± 20 nM | selectivity index (SI) (CCRF-CEM; ratio of CC50 of non-tumor cells (CRL 7065) and CC50 of tumor cells (CCRF-CEM)): 5.3 | CC50 (WIL-2NS): > 100 µM | CC50 (CCRF-SB): 7900 ± 900 nM | CC50 (SK-MEL28): > 100000 nM | CC50 (SK-MES1): > 100 µM | CC50 (DU145): > 100000 nM | CC50 (HeLa): > 100 µM | CC50 at 96 h [3, 4]: 370 ± 40 nM | melting point: > 300 °C

Cc1cc(CCCOc2c(C)cc(-c3noc(C(F)(F)F)n3)cc2C)on1 [P, Pleconaril, reference compound]
CC50 [1]: > 100 µM | EC50 [2]: 0.005 µM

O=C(O)CCCC(=O)Nc1ccc(-n2nnc3cc(Cl)c(Cl)cc32)cc1 [Compound 4b, 5-((4-(5,6-Dichloro-1H-Benzo[d][1,2,3]Triazol-1-yl)phenyl)amino)-5-oxopentanoic Acid]
CC50 [1]: > 100 µM | EC50 [2]: 45 µM | EC50 (Poliovirus type-1 (Sb-1)): 44 µM | melting point: 106 to 108 °C

CC[C@]1(O)C[C@H]2CN(CCc3c([nH]c4ccccc34)[C@@](C(=O)OC)(c3cc4c(cc3OC)N(C=O)[C@H]3[C@@](O)(C(=O)OC)[C@H](OC(C)=O)[C@]5(CC)C=CCN6CC[C@]43[C@@H]65)C2)C1 [Vincristine, reference compound]
CC50 (CCRF-CEM): 3 ± 1 nM | CC50 (WIL-2NS): 0.006 ± 0.002 µM | CC50 (CCRF-SB): 3 ± 1 nM | CC50 (SK-MEL28): > 4000 nM | CC50 (SK-MES1): 0.01 ± 0.02 µM | CC50 (DU145): 20 ± 10 nM | CC50 (HeLa): 0.05 ± 0.02 µM | CC50 at 96 h [3, 4]: > 4000 nM

O=C(O)/C=C/C(=O)Nc1ccc(-n2nnc3cc(Cl)c(Cl)cc32)cc1 [Compound 4d, (E)-4-((4-(5,6-Dichloro-1H-Benzo[d][1,2,3]Triazol-1-yl)phenyl)amino)-4-oxobut-2-enoic Acid]
CC50 [1]: > 100 µM | EC50 [2]: 10 µM | EC50 (Poliovirus type-1 (Sb-1)): > 100 µM | CC50 (CCRF-CEM): 3300 ± 1700 nM | CC50 (WIL-2NS): 64 ± 10 µM | CC50 (CCRF-SB): 510 ± 130 nM | CC50 (SK-MEL28): > 100000 nM | CC50 (SK-MES1): > 100 µM | CC50 (DU145): > 100000 nM | CC50 (HeLa): > 100 µM | CC50 at 96 h [3, 4]: 1700 ± 100 nM | melting point: 231 to 233 °C

Cc1cc2nnn(Cc3ccc(NC(=O)CCCCC(=O)Nc4ccc(Cn5nnc6cc(C)c(C)cc65)cc4)cc3)c2cc1C
melting point: 283 to 285 °C

O=C(Nc1ccc(-n2nc3cc(Cl)c(Cl)cc3n2)cc1)c1cccc(C(=O)Nc2ccc(-n3nc4cc(Cl)c(Cl)cc4n3)cc2)n1
melting point: > 300 °C

Cc1cc2nnn(Cc3ccc(NC(=O)c4ccc(C(=O)O)cc4)cc3)c2cc1C
melting point: > 300 °C

O=C(Nc1ccc(-n2nc3cc(Cl)c(Cl)cc3n2)cc1)c1ccc(C(=O)Nc2ccc(-n3nc4cc(Cl)c(Cl)cc4n3)cc2)cc1
melting point: > 300 °C

C#C[C@@]1(O)[C@H](O)[C@@H](CO)O[C@H]1n1ccc(N)nc1=O [Compound 2ec, 2′-C-ethynyl-cytidine, reference compound]
CC50 [1]: > 100 µM | EC50 (Poliovirus type-1 (Sb-1)): 23 µM

COc1cccc2c1C(=O)c1c(O)c3c(c(O)c1C2=O)C[C@@](O)(C(=O)CO)C[C@@H]3O[C@H]1C[C@H](N)[C@H](O)[C@H](C)O1 [Doxorubicin, reference compound]
CC50 (CCRF-CEM): 20 ± 10 nM | CC50 (WIL-2NS): 0.06 ± 0.01 µM | CC50 (CCRF-SB): 30 ± 20 nM | CC50 (SK-MEL28): 1100 ± 200 nM | CC50 (SK-MES1): 0.65 ± 0.05 µM | CC50 (DU145): 300 ± 100 nM | CC50 (HeLa): 1.8 ± 0.2 µM | CC50 at 96 h ([3]; human): 2000 ± 200 nM

O=C(Nc1ccc(-n2nc3cc(Cl)c(Cl)cc3n2)cc1)c1ccc(C(=O)Nc2ccc(-n3nc4cc(Cl)c(Cl)cc4n3)cc2)s1
melting point: > 300 °C

O=C(O)c1ccc(C(=O)Nc2ccc(Cn3nnc4ccccc43)cc2)s1
melting point: > 300 °C

O=C(CCCCC(=O)Nc1ccc(Cn2nnc3cc(Cl)c(Cl)cc32)cc1)Nc1ccc(Cn2nnc3cc(Cl)c(Cl)cc32)cc1
melting point: > 300 °C

Cc1cc2nnn(Cc3ccc(NC(=O)/C=C/C(=O)O)cc3)c2cc1C
melting point: 256 to 258 °C

O=C(O)CCCC(=O)Nc1ccc(Cn2nnc3ccccc32)cc1
melting point: 152 to 154 °C

Cc1cc2nnn(Cc3ccc(NC(=O)/C=C/C(=O)Nc4ccc(Cn5nnc6cc(C)c(C)cc65)cc4)cc3)c2cc1C
melting point: 117 to 119 °C

Cc1cc2nnn(Cc3ccc(NC(=O)c4cccc(C(=O)Nc5ccc(Cn6nnc7cc(C)c(C)cc76)cc5)n4)cc3)c2cc1C
melting point: 186 to 188 °C
